In series [1] the test system is Staphylococcus aureus. The experiment in a line: Antimicrobial activity against Staphylococcus aureus ATCC 29213 assessed as reduction in microbial growth. In kind it is functional.
The subject of series [2] is Escherichia coli. Briefly: Antimicrobial activity against Escherichia coli ATCC 25922 assessed as reduction in microbial growth. Format: functional.
Series [3] deals with Candida albicans. Briefly: Antimicrobial activity against Candida albicans ATCC 90029 assessed as reduction in microbial growth. Format: functional.
Series [4] is described as follows: Stability in human serum assessed as compound remaining measured after 1 hr by RP-HPLC analysis. In kind it is ADME, cell-free. As to conditions: read-out: Stability.
The test system of series [5] is HEK293. The experiment in a line: Cytotoxicity against human HEK293 cells assessed as reduction in cell viability at 128 uM relative to control. Format: toxicity, cell-based. As to conditions: hek293, 128 µM.
The test system of series [6] is HEK293. The experiment in a line: Cytotoxicity against human HEK293 cells assessed as reduction in cell viability at 1 to 128 uM relative to control. As to conditions: hek293, 128 µM, dose 1-128 µM. Format: toxicity, cell-based.
Series [7] is described as follows: Hemolytic activity in human RBC assessed as hemolysis at 2 uM relative to control. In kind it is toxicity, cell-based, Erythrocyte. As to conditions: red blood cells, read-out: Activity.
The nature of series [8]: Stability in human serum assessed as compound remaining measured after 3 hr by RP-HPLC analysis. In kind it is ADME, cell-free. As to conditions: read-out: Stability.
Series [9] is described as follows: Hemolytic activity in human RBC assessed as hemolysis at 128 uM relative to control. In kind it is toxicity, cell-based, Erythrocyte. Conditions: red blood cells, read-out: Activity.
The subject of series [10] is HEK293. Briefly: Cytotoxicity against human HEK293 cells assessed as reduction in cell viability up to 256 uM. In kind it is toxicity, cell-based. Conditions: hek293, 256 µM.
Series [11] is described as follows: Hemolytic activity against human RBC assessed as concentration required to cause 10% hemolysis up to 256 uM relative to control. In kind it is toxicity, cell-based. As to conditions: erythrocyte.

`C[C@@H]1[C@H](O)[C@@H](C)/C=C/C=C/C=C/C=C/C=C/C=C/C=C/[C@H](O[C@@H]2O[C@H](C)[C@@H](O)[C@H](N)[C@@H]2O)C[C@@H]2O[C@](O)(C[C@@H](O)C[C@@H](O)[C@H](O)CC[C@@H](O)C[C@@H](O)CC(=O)O[C@H]1C)C[C@H](O)[C@H]2C(=O)O` [AMPHOTERICIN B]: the MIC in series [1] and in series [2] was 0.4 µg/mL throughout.
Regarding `OC(Cn1cncn1)(Cn1cncn1)c1ccc(F)cc1F` [FLUCONAZOLE], in [3], the MIC is 12.5 µg/mL.
On to H-KKLLKKLLRLLKVLLR-OH, for which the remaining at 1 h in [4] amounted to 60%. In addition, the Activity is listed as 11% in [5] and “Toxic” in [6]. Moreover, the hemolysis at 2 µM in series [7] was found to be 90%. Also, the MIC in series [1] came out at 0.75 µg/mL; in [3], 3 µg/mL; in [2], 25 µg/mL. The remaining at 3 h in series [8] was less than 9%.
Take H-KKLLRLLKVLLR-OH: the hemolysis at 128 µM in [9] came to 35%. Moreover, in series [4], the remaining at 1 h amounted to 60%. Moreover, the values for the Activity in [5] and in series [6] were 50% and “Toxic”, respectively. Further, the MIC in series [1] is 1.5 µg/mL; in series [3], 50 µg/mL; in [2], 1.5 µg/mL. Also, in series [8], the remaining at 3 h was less than 9%.
For the compound H-KLLKHKLLVTLA-OH, the Activity entry in series [10] and in [11] was “Non-Toxic” throughout. In addition, the MIC was 50 µg/mL in [1], more than 200 µg/mL in [3] and 50 µg/mL in series [2]. In addition, in series [8], the remaining at 3 h was less than 9%.
Consider H-KLLKHKLLVTLR-OH, for which the Activity entry in series [10] and in [11] was “Non-Toxic” each time. Further, the MIC is 12.5 µg/mL in [1], more than 200 µg/mL in series [3] and 50 µg/mL in [2].
In the case of H-KLLKRKLLVLLR-OH, the MIC in series [1] is 3 µg/mL; in series [3], more than 200 µg/mL; in series [2], 12.5 µg/mL.
As to H-KLLKRKLLVTLR-OH, the Activity entry in series [10] and in series [11] was “Non-Toxic” in each case. Also, the MIC in [1] was 6.25 µg/mL; in series [3], more than 200 µg/mL; in [2], 25 µg/mL.

(Values after ChEMBL document CHEMBL5252568, “Rational design of HJH antimicrobial peptides to improve antimicrobial activity” (Bioorg Med Chem Lett, 2023).)
